This passage reports T/C results from PubChem BioAssay AID330 (DTP/NCI, 2004).

The assay has as its system P388 leukemia ip, CD2F1 mice, survival T/C. As to the kind of experiment: NCI In Vivo Anticancer Drug Screen. Data for tumor model P388 Leukemia (intraperitoneal) in CD2F1 (CDF1) mice. The settings on record: endpoint: median survival time, higher = longer survival. The essentials: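 Mice carrying the transplanted tumor received test compound or vehicle. Survival was recorded in each group, and the value is the treated-group measurement divided by that of the vehicle-treated control group.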

Where [1] appears, read: dose: 50.0 mg/kg/injection, schedule: Q01DX005 (ip), vehicle: saline with Tween-80.
The mark [2] stands for this setting: dose: 100.0 mg/kg/injection, schedule: Q01DX005 (ip), vehicle: saline with Tween-80.
Setting [3] is: dose: 50.0 mg/kg/injection, schedule: Q01DX005 (ip), vehicle: Klucel (hydroxypropylcellulose) (HPC).
Setting [4] is: dose: 100.0 mg/kg/injection, schedule: Q01DX005 (ip), vehicle: Klucel (hydroxypropylcellulose) (HPC).
Setting [5] is: dose: 60.0 mg/kg/injection, schedule: Q01DX005 (ip), vehicle: saline with Tween-80.
Setting [6] is: dose: 120.0 mg/kg/injection, schedule: Q01DX005 (ip), vehicle: saline with Tween-80.
[7] abbreviates: dose: 240.0 mg/kg/injection, schedule: Q01DX005 (ip), vehicle: saline with Tween-80.
The mark [8] stands for this setting: dose: 50.0 mg/kg/injection, schedule: Q01DX009 (ip), vehicle: Klucel (hydroxypropylcellulose) (HPC).
Where [9] appears, read: dose: 100.0 mg/kg/injection, schedule: Q01DX009 (ip), vehicle: Klucel (hydroxypropylcellulose) (HPC).

Where “and” joins values, the source holds several entries; their conditions need not be identical. Equal entries are not always repeated. Inconclusive results and toxic doses are left out.

For the compound `CC[C@@]1(O)C[C@H](OC2CC(N(C)C)C(OC3CC(O)C(O[C@@H]4O[C@@H](C)C(=O)C=C4N)C(C)O3)C(C)O2)c2c(cc3c(c2O)C(=O)c2c(O)ccc(O)c2C3=O)[C@H]1C(=O)OC` (stereo partly drawn), the T/C reads like this: (dose: 0.19 mg/kg/injection, schedule: Q01DX009 (ip), vehicle: saline) 150 % of control; (dose: 0.38 mg/kg/injection, schedule: Q01DX009 (ip), vehicle: saline with Tween-80) 161 % of control; (dose: 0.75 mg/kg/injection, schedule: Q01DX009 (ip), vehicle: saline with Tween-80) 175 % of control; (dose: 0.75 mg/kg/injection, schedule: Q01DX009 (ip), vehicle: saline) 163 % of control; (dose: 1.5 mg/kg/injection, schedule: Q01DX009 (ip), vehicle: saline with Tween-80) 89 % of control; (dose: 1.5 mg/kg/injection, schedule: Q01DX009 (ip), vehicle: saline) 182 % of control. The T/C (dose: 3.0 mg/kg/injection, schedule: Q01DX009 (ip), vehicle: saline) is 94 % of control; the T/C (dose: 1.0 micrograms/kg/injection, schedule: Q01DX005 (ip), vehicle: Klucel (hydroxypropylcellulose) (HPC)) was 102 % of control; the T/C (dose: 2.0 micrograms/kg/injection, schedule: Q01DX005 (ip), vehicle: Klucel (hydroxypropylcellulose) (HPC)) was 106 % of control; the T/C (dose: 4.0 micrograms/kg/injection, schedule: Q01DX005 (ip), vehicle: Klucel (hydroxypropylcellulose) (HPC)) was 102 % of control; the T/C (dose: 8.0 micrograms/kg/injection, schedule: Q01DX005 (ip), vehicle: Klucel (hydroxypropylcellulose) (HPC)) was 102 % of control.

`C=C1C(=O)OC2CC3=CCC(OC3=O)/C(C)=C\CC12` (stereo not drawn): the T/C is, setting by setting: (dose: 21.5 mg/kg/injection, schedule: Q01DX005 (ip), vehicle: Klucel (hydroxypropylcellulose) (HPC)) 118 % of control; (dose: 43.0 mg/kg/injection, schedule: Q01DX005 (ip), vehicle: Klucel (hydroxypropylcellulose) (HPC)) 116 % of control; (dose: 86.0 mg/kg/injection, schedule: Q01DX005 (ip), vehicle: Klucel (hydroxypropylcellulose) (HPC)) 108 % of control.

Turning to `O=C(O)c1cc(-n2c(-c3ccccc3)cc3c2CCc2ccccc2-3)ccc1O`, the T/C is 109 % of control under setting [1] and 110 % of control under setting [2].

`Nc1nc2c([nH]c(=O)n2C2OC(CO)C(O)C2O)c(=O)[nH]1` (stereo not drawn): the T/C (dose: 50.0 mg/kg/injection, schedule: Q01DX005 (ip), vehicle: saline) was 109 % of control; the T/C (dose: 100.0 mg/kg/injection, schedule: Q01DX005 (ip), vehicle: saline) was 110 % of control; the T/C (dose: 200.0 mg/kg/injection, schedule: Q01DX005 (ip), vehicle: saline) is 112 % of control.

Take `COc1cccc2c1C(=O)c1ccccc1-2`: the T/C under setting [3] is 102 % of control; the T/C under setting [4] is 102 % of control; the T/C (dose: 200.0 mg/kg/injection, schedule: Q01DX005 (ip), vehicle: Klucel (hydroxypropylcellulose) (HPC)) is 91 % of control.

For the compound `COC(=O)c1c(C)cc(OC(=O)c2c(C)cc(O)c(C=O)c2O)c(C)c1O`, the T/C reads like this: (dose: 0.25 mg/kg/injection, schedule: Q01DX009 (ip), vehicle: saline with Tween-80) 104 % of control; (dose: 0.5 mg/kg/injection, schedule: Q01DX009 (ip), vehicle: saline with Tween-80) 92 % of control; (dose: 1.0 mg/kg/injection, schedule: Q01DX009 (ip), vehicle: saline with Tween-80) 104 % of control; (dose: 50.0 mg/kg/injection, schedule: Q01DX009 (ip), vehicle: saline) 95 % of control; (dose: 100.0 mg/kg/injection, schedule: Q01DX009 (ip), vehicle: saline) 90 % of control; (dose: 200.0 mg/kg/injection, schedule: Q01DX009 (ip), vehicle: saline) 95 % of control.

Take `CC1SC2(C(=O)Nc3ccc([N+](=O)[O-])cc32)N(c2ccc(Cl)cc2)C1=O` (stereo not drawn): the T/C was 91 % of control under setting [5], 91 % of control under setting [6] and 91 % of control under setting [7].

As for `Cc1cccc2cc3ccccc3c[n+]12`, the T/C was 101 % of control (dose: 6.25 mg/kg/injection, schedule: Q01DX005 (ip), vehicle: saline + Tween-80 + alcohol); 101 % of control (dose: 12.5 mg/kg/injection, schedule: Q01DX005 (ip), vehicle: saline + Tween-80 + alcohol); 101 % of control (dose: 25.0 mg/kg/injection, schedule: Q01DX005 (ip), vehicle: saline + Tween-80 + alcohol).

For the compound `O=C(NC1C=Nc2ccc(Cl)cc2NC1=O)c1ccc(Cl)cc1` (stereo not drawn), the T/C runs as follows: (dose: 60.0 mg/kg/injection, schedule: Q01DX005 (ip), vehicle: Klucel (hydroxypropylcellulose) (HPC)) 91 % of control; (dose: 120.0 mg/kg/injection, schedule: Q01DX005 (ip), vehicle: Klucel (hydroxypropylcellulose) (HPC)) 91 % of control; (dose: 240.0 mg/kg/injection, schedule: Q01DX005 (ip), vehicle: Klucel (hydroxypropylcellulose) (HPC)) 93 % of control.

In the case of `CC(=O)OC1COC(n2cnc3c(Cl)nc(Cl)nc32)C(OC(C)=O)C1OC(C)=O` (stereo not drawn), the T/C by setting is: under setting [3], 107 % of control; under setting [4], 108 % of control.

With `O=C1c2cc3c(-c4ccccc4)sc(-c4ccccc4)c3cc2C(=O)c2c(O)ccc(O)c21`, the T/C was 90 % of control (dose: 12.5 mg/kg/injection, schedule: Q04DX002 (ip), vehicle: saline with Tween-80); 91 % of control (dose: 25.0 mg/kg/injection, schedule: Q04DX002 (ip), vehicle: saline with Tween-80); 98 % of control and 88 % of control (dose: 50.0 mg/kg/injection, schedule: Q04DX002 (ip), vehicle: saline with Tween-80).

On to `COc1cc2c(cc1OC)C1Cc3cc(OC)c(OC)cc3[N+]1(C)CC2` (stereo not drawn), for which the T/C runs as follows: under setting [1], 103 % of control; under setting [2], 103 % of control.

As for `C=CC1C(C[C@@H]2c3cc(O)c(O)cc3CCN2C(C)=O)C(C(=O)OC)=CO[C@H]1OC1OC(CO)C(O)C(O)C1O` (stereo partly drawn), the T/C reads like this: (dose: 60.0 mg/kg/injection, schedule: Q01DX005 (ip), vehicle: saline) 105 % of control; (dose: 120.0 mg/kg/injection, schedule: Q01DX005 (ip), vehicle: saline) 103 % of control; (dose: 240.0 mg/kg/injection, schedule: Q01DX005 (ip), vehicle: saline) 104 % of control.

For the compound `CSC(=S)NS(=O)(=O)c1cccs1`, the T/C is 98 % of control under setting [8] and 91 % of control under setting [9].

Consider `COC(=O)c1nc(SC)[nH]c1CC(N)=O`, for which the T/C under setting [5] is 101 % of control, the T/C under setting [6] is 100 % of control and the T/C under setting [7] was 96 % of control.

Take `OB(O)c1ccc(B(O)O)cc1`: the T/C by setting is: under setting [8], 104 % of control; under setting [9], 103 % of control; (dose: 200.0 mg/kg/injection, schedule: Q01DX009 (ip), vehicle: Klucel (hydroxypropylcellulose) (HPC)) 95 % of control; (dose: 400.0 mg/kg/injection, schedule: Q01DX009 (ip), vehicle: Klucel (hydroxypropylcellulose) (HPC)) 104 % of control.

For `c1ccc(C[N+]23CC[N+](Cc4ccccc4)(CC2)CC3)cc1`, the T/C is 95 % of control (dose: 50.0 mg/kg/injection, schedule: Q04DX003 (ip), vehicle: saline); 108 % of control (dose: 100.0 mg/kg/injection, schedule: Q04DX003 (ip), vehicle: saline); 95 % of control (dose: 200.0 mg/kg/injection, schedule: Q04DX003 (ip), vehicle: saline).

In the case of `c1ccc([P+](Cc2ccc(C[P+](c3ccccc3)(c3ccccc3)c3ccccc3)cc2)(c2ccccc2)c2ccccc2)cc1`, the T/C runs as follows: (dose: 0.07 mg/kg/injection, schedule: Q01DX009 (ip), vehicle: saline sonified) 90 % of control; (dose: 0.15 mg/kg/injection, schedule: Q01DX009 (ip), vehicle: saline sonified) 95 % of control; (dose: 0.3 mg/kg/injection, schedule: Q01DX009 (ip), vehicle: saline sonified) 90 % of control; (dose: 0.6 mg/kg/injection, schedule: Q01DX009 (ip), vehicle: saline sonified) 100 % of control.
